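Interpolation was linear, between the two tested concentrations surrounding the appropriate level; five concentrations were tested over 48 hours in 96-well plates. GI50 = concentration required for 50% inhibition of growth.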 Activity calls are given as the source filed them. No stated cut-off is given here; in the data, active = GI50 up to about 1.1 µM and inactive = higher.
What was measured:
Experiment in all cases: NCI tumour cell line growth inhibition, 48 h
786-0 = system: 786-0
A498 = system: A498
A549 = system: A549
ACHN = system: ACHN
BT-549 = system: BT-549
CAKI-1 = system: CAKI-1
CCRF-CEM = system: CCRF-CEM
COLO 205 = system: COLO 205
DU-145 = system: DU-145
EKVX = system: EKVX
HCC 2998 = system: HCC 2998
HCT-116 = system: HCT-116
HCT-15 = system: HCT-15
HL-60 = system: HL-60
HOP-62 = system: HOP-62
HOP-92 = system: HOP-92
HT-29 = system: HT-29
Hs-578T = system: Hs-578T
IGROV-1 = system: IGROV-1
K562 = system: K562
KM12 = system: KM12
LOX IMVI = system: LOX IMVI
M14 = system: M14
MCF7 = system: MCF7
MDA-MB-231 = system: MDA-MB-231
MDA-MB-435 = system: MDA-MB-435
MDA-N = system: MDA-N
MOLT-4 = system: MOLT-4
Malme-3M = system: Malme-3M
NCI-H23 = system: NCI-H23
NCI-H460 = system: NCI-H460
NCI-H522 = system: NCI-H522
NCI/ADR-RES = system: NCI/ADR-RES
OVCAR-3 = system: OVCAR-3
OVCAR-5 = system: OVCAR-5
OVCAR-8 = system: OVCAR-8
PC-3 = system: PC-3
RPMI-8226 = system: RPMI-8226
RXF 393 = system: RXF 393
SF-268 = system: SF-268
SF-295 = system: SF-295
SF-539 = system: SF-539
SK-MEL-28 = system: SK-MEL-28
SK-MEL-2 = system: SK-MEL-2
SK-MEL-5 = system: SK-MEL-5
SK-OV-3 = system: SK-OV-3
SN12C = system: SN12C
SNB-19 = system: SNB-19
SNB-75 = system: SNB-75
SR = system: SR
SW-620 = system: SW-620
T47D = system: T47D
TK-10 = system: TK-10
U-251 = system: U-251
UACC-257 = system: UACC-257
UACC-62 = system: UACC-62
UO-31 = system: UO-31

Structure (SMILES): Cc1nc2n(c1/C=C1/C(=O)Nc3cccc(Cl)c31)CCS2
- GI50 (786-0): 40 µM (inactive)
- GI50 (A498): 30 µM (inactive)
- GI50 (A549): 56.1 µM (inactive)
- GI50 (ACHN): 31 µM (inactive)
- GI50 (BT-549): 25.1 µM (inactive)
- GI50 (CAKI-1): 46.3 µM (inactive)
- GI50 (CCRF-CEM): 50.9 µM (inactive)
- GI50 (COLO 205): > 100 µM (inactive)
- GI50 (DU-145): 48.1 µM (inactive)
- GI50 (EKVX): 31.8 µM (inactive)
- GI50 (HCC 2998): > 100 µM (inactive)
- GI50 (HCT-116): 42.2 µM (inactive)
- GI50 (HCT-15): 89.1 µM
- GI50 (HL-60): > 100 µM (inactive)
- GI50 (HOP-62): 24 µM (inactive)
- GI50 (HOP-92): 20.7 µM (inactive)
- GI50 (HT-29): > 100 µM (inactive)
- GI50 (Hs-578T): 22 µM (inactive)
- GI50 (IGROV-1): 48.8 µM (inactive)
- GI50 (K562): 20.3 µM (inactive)
- GI50 (KM12): > 100 µM (inactive)
- GI50 (LOX IMVI): 81.7 µM (inactive)
- GI50 (M14): > 100 µM (inactive)
- GI50 (MCF7): 14.2 µM (inactive)
- GI50 (MDA-MB-231): 18.7 µM (inactive)
- GI50 (MDA-MB-435): 33.5 µM (inactive)
- GI50 (MDA-N): 57.9 µM (inactive)
- GI50 (MOLT-4): 35.2 µM (inactive)
- GI50 (Malme-3M): 50.2 µM (inactive)
- GI50 (NCI-H23): 22 µM (inactive)
- GI50 (NCI-H460): > 100 µM (inactive)
- GI50 (NCI-H522): 21.5 µM (inactive)
- GI50 (NCI/ADR-RES): 31.1 µM (inactive)
- GI50 (OVCAR-3): > 100 µM (inactive)
- GI50 (OVCAR-5): > 100 µM (inactive)
- GI50 (OVCAR-8): 25.7 µM (inactive)
- GI50 (PC-3): 38 µM (inactive)
- GI50 (RPMI-8226): > 100 µM (inactive)
- GI50 (RXF 393): 20.7 µM (inactive)
- GI50 (SF-268): 19.5 µM (inactive)
- GI50 (SF-295): 27.5 µM (inactive)
- GI50 (SF-539): 19 µM (inactive)
- GI50 (SK-MEL-28): > 100 µM (inactive)
- GI50 (SK-MEL-2): 17.1 µM (inactive)
- GI50 (SK-MEL-5): 55.1 µM (inactive)
- GI50 (SK-OV-3): 16.7 µM (inactive)
- GI50 (SN12C): 25.1 µM (inactive)
- GI50 (SNB-19): 27.2 µM (inactive)
- GI50 (SNB-75): 17.5 µM (inactive)
- GI50 (SR): > 100 µM (inactive)
- GI50 (SW-620): > 100 µM (inactive)
- GI50 (T47D): 15.1 µM (inactive)
- GI50 (TK-10): 37.7 µM (inactive)
- GI50 (U-251): 17 µM (inactive)
- GI50 (UACC-257): > 100 µM (inactive)
- GI50 (UACC-62): 33.6 µM (inactive)
- GI50 (UO-31): 29.8 µM (inactive)
